The record followed here is patent US20220241207A1, “EXTENDED-RELEASE SOLID ORAL DOSAGE FORM COMPRISING VITAMIN B12 AND A VITAMIN B12 DEPLETING DRUG” (DSM IP ASSETS B.V., priority 2019, published 2022).

The procedure of this series:
The solubilization medium was: • SIF (simulated intestinal fluid, pH=6.8, prepared according to Ph. Eur.)
The dissolution medium was heated to 37° C. and the analyses were performed at this temperature. During the analyses, the salts were added in access to the solubilization media and left to mix for 24 h. Afterwards, the solutions were filtered, and the precipitates were investigated using ATR-IR analysis to confirm the presence of the starting material (e.g. respective Ca salt). Attenuated total reflection (ATR) is a sampling technique used in conjunction with infrared spectroscopy which enables samples to be examined directly in the solid or liquid state without further preparation. The filtered solutions were analysed for Ca^2+ ions content.

On to “dicalciumphosphat anhydrous [dicalcium phosphate anhydrous]”, for which the “Ca^2+ ions average” value was 0.028 mg/mL. This substance also came in with a solubility average (pH 6.8) of 90 µg/mL.
